A short description of data set [1]: Suppression of spontaneous calcium oscillation amplitude in 4-AP-induced C57Bl/6J mouse primary neocortical neuron incubated for 25 mins by Fluo-4 dye based assay. In kind it is functional, cell-based.
The nature of data set [2]: Suppression of spontaneous calcium oscillation frequency in C57Bl/6J mouse primary neocortical neuron incubated for 15 mins by Fluo-4 dye based assay. Type of data set: functional, cell-based. The settings on record: 0.25 h.
Data set [3] is described as follows: Suppression of spontaneous calcium oscillation amplitude in C57Bl/6J mouse primary neocortical neuron incubated for 15 mins by Fluo-4 dye based assay. Type of data set: functional, cell-based. To be noted: 0.25 h.
Data set [4] is described as follows: Suppression of spontaneous calcium oscillation frequency in 4-AP-induced C57Bl/6J mouse primary neocortical neuron incubated for 25 mins by Fluo-4 dye based assay. In kind it is functional, cell-based.
The subject of another data set is Edwardsiella tarda. Put plainly: Antimicrobial activity against Edwardsiella tarda assessed as microbial growth inhibition. In kind it is functional.
The subject of data set [5] is Ceratobasidium cornigerum. Put plainly: Antimicrobial activity against Ceratobasidium cornigerum assessed as microbial growth inhibition. In kind it is functional.
A short description of data set [6]: Hemolytic activity against human erythrocytes assessed as induction of cell lysis. Type of data set: toxicity, cell-based, Erythrocyte.
The subject of data set [7] is MCF7. Put plainly: Antitumor activity against human MCF7 cells xenografted in athymic nude BALB/c mouse assessed as tumor growth inhibition at 5 mg/kg, iv measured every 4 days for 40 days by caliper method relative to control. In kind it is functional. To be noted: MCF7, 960 h, time 40 day, read-out: TGI. Background: Xenograft models place foreign cells or tissue in a host animal.

Data set [8] has as its system MCF7. Put plainly: Antitumor activity against human MCF7 cells xenografted in athymic nude BALB/c mouse assessed as tumor growth inhibition at 10 mg/kg, iv measured every 4 days for 40 days by caliper method relative to control. Type of data set: functional. The settings on record: MCF7, 960 h, time 40 day, read-out: TGI.
The subject of data set [9] is MCF7. Put plainly: Antitumor activity against human MCF7 cells xenografted in athymic nude BALB/c mouse assessed as tumor growth inhibition at 20 mg/kg, iv measured every 4 days for 40 days by caliper method relative to control. To be noted: MCF7, 960 h, time 40 day, read-out: TGI. Type of data set: functional.
The test system of data set [10] is MCF7. Put plainly: Antitumor activity against human MCF7 cells xenografted in athymic nude BALB/c mouse assessed as tumor growth inhibition at 20 mg/kg, iv measured every 4 days for 40 days by caliper method relative to PTX. Type of data set: functional. The settings on record: MCF7, 960 h, time 40 day, read-out: TGI.
Data set [11] deals with MCF7. Put plainly: Antitumor activity against Adriamycin-resistant human MCF7 cells xenografted in athymic nude BALB/c mouse assessed as tumor growth inhibition at 5 mg/kg, iv measured every 4 days for 40 days by caliper method in presence of Adriamycin relative to control. Type of data set: functional. To be noted: MCF7, 960 h, time 40 day, read-out: TGI.
In data set [12] the test system is MCF7. Put plainly: Antitumor activity against Adriamycin-resistant human MCF7 cells xenografted in athymic nude BALB/c mouse assessed as tumor growth inhibition at 5 mg/kg, iv measured every 4 days for 40 days by caliper method relative to control. In kind it is functional. The settings on record: MCF7, 960 h, time 40 day, read-out: TGI.

In brackets after ≈: the same amount, converted by molar mass.

The values that follow come from ChEMBL document CHEMBL5104094, “Chemistry, biosynthesis and biological activity of terpenoids and meroterpenoids in bacteria and fungi isolated from different marine habitats” (Eur J Med Chem, 2021).

As a reminder, the IC50 is the concentration that gives 50% inhibition. `C=C1CC[C@H]2C(C)(C)[C@@H](O)CC[C@]2(C)[C@H]1CC(=O)[C@]1(O)C=C(CSC[C@H](O)C(=O)OC)C(=O)C1`: the IC50 was 4.6 µM in data set [1], 3.2 µM in [2], 1.8 µM in data set [3] and 10 µM in data set [4].

The MIC is the smallest concentration in the dilution series that meets the test's criterion for growth inhibition. With `C=C(C)[C@H]1[C@H](OC(C)=O)C[C@H](C)[C@@]12CC=C(C)[C@@H](OC(=O)CCCCCCC/C=C\C/C=C\CCCCC)C2`, the minimum inhibitory concentration (MIC) in the data set with Edwardsiella tarda came to 0.25 µg/mL (≈ 0.462 µM); in data set [5] it was 0.5 µg/mL (≈ 0.925 µM).

Usually EC50 stands for the concentration at which the effect is half-maximal. `Cc1cc2c(c(=O)o1)C[C@@H]1[C@@]3(C)[C@H](O)CC(=O)OC(C)(C)[C@@H]3[C@H](O)C[C@@]1(C)O2`: in data set [6], the EC50 is 1150 µM.

In the case of `CO[C@H]1O[C@@]2(OC)C[C@@](C)(O)[C@H]3C[C@@]4(C)CC[C@H]([C@@H](C)/C=C\C=C(C)C)[C@@H]4C/C=C/1[C@H]32` [OPHIOBOLIN O], the inhibition in vivo at 5 mg/kg was found to be 35% in the data set on MCF7 [7], 71% with MCF7 [11] and 23% with MCF7 [12]. Besides, the inhibition in vivo at 10 mg/kg in the data set on MCF7 [8] came to 46%. Further, the inhibition in vivo at 20 mg/kg in the data set with MCF7 [9] was found to be 69%; with MCF7 [10], 73%.
